# Measurements published in patent publication US20030171598A1, “Aminoacid-iodine complex” (priority 2001, published 2003).
# Test system: vibrio splendidus
# Conditions: Penaeus vannamei pond
# Text: 600,000 of Penaeus vannamei were raised in a pond with 1.1M depth and 1.6 hectare. […] At the next night, the pond was sterilized using the product prepared according to Example 5 with the content of iodine of 0.01 ppm.
smiles,measurement,setting,value
"CSCC[C@H](N)C(=O)O.I [Example 5, methionine iodine]",killing vibrio splendidus,content of iodine 0.01 ppm,very effective
same,time after which glimmering in the pond has disappeared,sterilized at content of iodine of 0.01 ppm,40 min
